The values below are quoted from earlier work in US20090093506A1, “Copper antagonist compositions” (priority 2007, published 2009).

The structures appear in SMILES notation.

The conditions of data set [1]: solution of the free base itself.
Test in data set [2]: not given
The source holds these as a separate data set.

Consider `COCc1c(C(C)C)nc(C(C)C)c(/C=C/[C@@H](O)C[C@@H](O)CC(=O)O)c1-c1ccc(F)cc1` [cerivastatin], for which the rhabdomyolysis entry (patients receiving the drug, withdrawn from the U.S. market August 2001) was “seen to occur more often”.
As to `NCCNCCNCCN` [trientine, triethylenetetramine], in data set [1], the “pH of a solution” value was 14.
On to `CC(=O)[O-].CC(=O)[O-].[Zn+2]` [Zinc acetate], for which the “long-term or major side effects” value (patients with Wilson's disease) is “has not shown any long-term or major side effects”.
In the case of `CC(C)(S)[C@@H](N)C(=O)O` [Penicillamine, 3-mercapto-D-valine], the solubility in acetone entry in data set [2] (acetone) was “insoluble”. For the same compound, in data set [2] (alcohol), the solubility in alcohol result is recorded as “slightly soluble”. The solubility in benzene entry in data set [2] (benzene) was “insoluble”. Also, the “solubility in carbon tetrachloride” value in data set [2] (carbon tetrachloride) is “insoluble”. The solubility in ether entry in data set [2] (ether) is given as “insoluble”. Moreover, in data set [2] (water), the solubility in water entry is “freely soluble”.
